The results in this text go back to patent US9694016B2 (Novartis AG, priority 2013, dated 2017).

pIC50: −log10 of the molar value.

Chain of b-Raf (V600E) (P15056 whole entry V600E): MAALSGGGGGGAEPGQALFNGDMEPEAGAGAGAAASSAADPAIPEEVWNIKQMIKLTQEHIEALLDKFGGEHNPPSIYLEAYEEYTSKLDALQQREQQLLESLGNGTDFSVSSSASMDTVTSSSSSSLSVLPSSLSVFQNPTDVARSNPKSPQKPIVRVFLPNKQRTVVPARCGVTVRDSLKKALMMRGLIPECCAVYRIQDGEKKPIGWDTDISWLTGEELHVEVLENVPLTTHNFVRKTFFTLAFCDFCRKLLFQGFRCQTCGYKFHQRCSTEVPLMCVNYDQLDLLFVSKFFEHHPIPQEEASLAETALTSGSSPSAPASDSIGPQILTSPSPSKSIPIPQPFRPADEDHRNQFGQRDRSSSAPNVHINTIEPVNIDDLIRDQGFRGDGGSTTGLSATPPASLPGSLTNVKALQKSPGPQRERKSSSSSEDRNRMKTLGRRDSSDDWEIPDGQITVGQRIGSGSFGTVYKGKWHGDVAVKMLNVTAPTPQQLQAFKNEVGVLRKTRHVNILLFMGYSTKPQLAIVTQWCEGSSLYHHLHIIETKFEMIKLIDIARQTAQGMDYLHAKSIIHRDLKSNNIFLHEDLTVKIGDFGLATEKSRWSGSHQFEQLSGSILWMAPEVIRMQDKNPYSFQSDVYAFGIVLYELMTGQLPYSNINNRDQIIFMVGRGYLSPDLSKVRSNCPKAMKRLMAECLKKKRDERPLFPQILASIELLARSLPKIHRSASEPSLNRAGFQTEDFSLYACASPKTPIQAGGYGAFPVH

One experiment addresses b-Raf (V600E) (Homo sapiens (Human), UniProt P15056, V600E). To be noted: read-out: b-Raf IC-50.
As to `CCOc1nnc(-c2cc(NC(=O)c3ccc(CNC)c(C(F)(F)F)c3)ccc2C)cc1N1CCOCC1` [Example 574, N-(3-(6-ethoxy-5-morpholinopyridazin-3-yl)-4-methylphenyl)-4-((methylamino)methyl)-3-(trifluoromethyl)benzamide], the pIC50 was 8.66.

Still in this experiment, the particulars now being: read-out: b-Raf IC-50; AlphaScreen, 60 min pre-incubation, 3 hours reaction.
For `Cc1ccc(NC(=O)c2ccnc(N(C)CCO)c2)cc1-c1cc(N2CCOCC2)c(=O)n(C)c1` [Example 456], the pIC50 is 8.48.
Consider `COc1nnc(-c2cc(NC(=O)c3ccnc(C4CC4)c3)ccc2C)cc1N1CCOCC1` [Example 550, 2-cyclopropyl-N-(3-(6-methoxy-5-morpholinopyridazin-3-yl)-4-methylphenyl)isonicotinamide], for which the pIC50 is 8.92.
As to `Cc1ncc(NC(=O)c2cccc(C(F)(F)F)c2)cc1-c1cc(N2CCOCC2)nc(N2C(=O)OC[C@@H]2C)n1` [Example 781, (S)—N-(6-methyl-5-(2-(4-methyl-2-oxooxazolidin-3-yl)-6-morpholinopyrimidin-4-yl)pyridin-3-yl)-3-(trifluoromethyl)benzamide], the pIC50 was 7.97.
With `COc1nnc(-c2cc(NC(=O)c3ccnc(C(C)(F)F)c3)ccc2C)cc1N1CCOCC1` [Example 548, 2-(1,1-difluoroethyl)-N-(3-(6-methoxy-5-morpholinopyridazin-3-yl)-4-methylphenyl)isonicotinamide], the pIC50 was 8.96.
In the case of `Cc1ccc(NC(=O)c2ccnc(C3(C#N)CC3)c2)cc1-c1cc(N2CCOCC2)c(=O)n(C)n1` [Example 659, 2-(1-cyanocyclopropyl)-N-(4-methyl-3-(1-methyl-5-morpholino-6-oxo-1,6-dihydropyridazin-3-yl)phenyl)isonicotinamide], the pIC50 is 9.15.
The same measure, in the same setting: to `Cc1ncc(NC(=O)c2cccc(S(C)(=O)=O)c2)cc1-c1cc(N2CCOCC2)n(C)c(=O)c1` [Example 509, N-(1′,2-dimethyl-6′-morpholino-2′-oxo-1′,2′-dihydro-[3,4′-bipyridin]-5-yl)-3-(methylsulfonyl)benzamide] belongs 7.76; to `Cc1ncc(NC(=O)c2ccnc(C(C)(C)C#N)c2)cc1-c1cc(N2CCOCC2)c(=O)n(C)n1` [Example 645, 2-(2-cyanopropan-2-yl)-N-(6-methyl-5-(1-methyl-5-morpholino-6-oxo-1,6-dihydropyridazin-3-yl)pyridin-3-yl)isonicotinamide], 7.27; to `Cc1ncc(NC(=O)c2ccnc(C(C)(C)F)c2)cc1-c1cncc(N2CCOCC2)n1` [Example 534, 2-(2-fluoropropan-2-yl)-N-(6-methyl-5-(6-morpholinopyrazin-2-yl)pyridin-3-yl)isonicotinamide], 8.22.
Still for that read-out and setting: to `CCNc1nc(-c2cc(NC(=O)c3cnnc(C(C)(C)C#N)c3)cnc2C)cc(N2CCOCC2)n1` [Example 730, 6-(2-cyanopropan-2-yl)-N-(5-(2-(ethylamino)-6-morpholinopyrimidin-4-yl)-6-methylpyridin-3-yl)pyridazine-4-carboxamide] belongs 7.57.
The same measure, in the same setting: to `Cc1ncc(NC(=O)c2cccc(C(F)(F)F)c2)cc1-c1cc(N2CCOCC2)nc(N2CC(O)C2)n1` [Example 768, N-(5-(2-(3-hydroxyazetidin-1-yl)-6-morpholinopyrimidin-4-yl)-6-methylpyridin-3-yl)-3-(trifluoromethyl)benzamide] belongs 7.95.
As to `Cc1ncc(NC(=O)c2ccnc(C(F)(F)F)c2)cc1-c1cc(N2CCOCC2)n2nccc2n1` [Example 798, N-(6-methyl-5-(7-morpholinopyrazolo[1,5-a]pyrimidin-5-yl)pyridin-3-yl)-2-(trifluoromethyl)isonicotinamide], the pIC50 is 8.96.

Still in this experiment, the particulars now being: read-out: b-Raf IC-50; AlphaScreen, 60 min pre-incubation, reaction 3 hours at room temperature.
In the case of `Cc1ccc(NC(=O)c2cccc(C(F)(F)F)c2)cc1-c1cc(N2CCOCC2)nc(N2CC[C@@H](O)C2=O)c1` [Example 1065, (R)—N-(3-(2-(3-hydroxy-2-oxopyrrolidin-1-yl)-6-morpholinopyridin-4-yl)-4-methylphenyl)-3-(trifluoromethyl)benzamide], the pIC50 was 9.28.
Still for that read-out and setting: to `Cc1ncc(NC(=O)c2ccnc(C(C)(C)C#N)c2)cc1-c1cc(N2CCOCC2)nc(N2CCOCC2)c1` [Example 1123, 2-(2-cyanopropan-2-yl)-N-(2-methyl-2′,6′-dimorpholino-[3,4′-bipyridin]-5-yl)isonicotinamide] belongs 7.96; to `CCOc1nnc(-c2cc(C(=O)Nc3ccnc(C(C)(F)F)c3)ccc2C)cc1N1CCOCC1` [Example 1020, N-(2-(1,1-difluoroethyl)pyridin-4-yl)-3-(6-ethoxy-5-morpholinopyridazin-3-yl)-4-methylbenzamide], 8.11; to `Cc1cc(=O)c(C(=O)Nc2cccc(C(F)(F)F)c2)cn1-c1ccnc(N2CCOCC2)c1` [Example 1175, 6-methyl-2′-morpholino-4-oxo-N-(3-(trifluoromethyl)phenyl)-4H-[1,4′-bipyridine]-3-carboxamide], 7.10.
Same read-out and setting: to `Cc1ccc(NC(=O)c2cc(C(C)(C)F)ccn2)cc1-c1cc(N2CCOCC2)c(=O)n(C)c1` [Example 907, 4-(2-fluoropropan-2-yl)-N-(4-methyl-3-(1-methyl-5-morpholino-6-oxo-1,6-dihydropyridin-3-yl)phenyl)picolinamide] belongs 8.35.
The same measure, in the same setting: to `Cc1ncc(NC(=O)c2ccnc(C(C)(C)F)c2)cc1-c1cc(N2CCOCC2)nc(N2CC(C)(O)C2)c1` [Example 1106, 2-(2-fluoropropan-2-yl)-N-(2′-(3-hydroxy-3-methylazetidin-1-yl)-2-methyl-6′-morpholino-[3,4′-bipyridin]-5-yl)isonicotinamide] belongs 8.07; to `Cc1ccc(NC(=O)c2cccc(C(C)(C)S(C)(=O)=O)c2)cc1-c1cc(N2CCOCC2)nc(N2CC(O)C2)c1` [Example 1099, N-(3-(2-(3-hydroxyazetidin-1-yl)-6-morpholinopyridin-4-yl)-4-methylphenyl)-3-(2-(methylsulfonyl)propan-2-yl)benzamide], 7.73; to `Cc1ccc(NC(=O)c2ccnc(C(C)C)c2)cc1-c1cc(N2CCOCC2)nc(N2CCOCC2)c1` [Example 1117, N-(3-(2,6-dimorpholinopyridin-4-yl)-4-methylphenyl)-2-isopropylisonicotinamide], 8.88.
Consider `Cc1ncc(NC(=O)c2ccnc(C(C)(C)C#N)c2)cc1-c1cc(NCCO)nc(N2CCOCC2)c1` [Example 1042, 2-(2-cyanopropan-2-yl)-N-(2′-((2-hydroxyethyl)amino)-2-methyl-6′-morpholino-[3,4′-bipyridin]-5-yl)isonicotinamide], for which the pIC50 was 7.39.
Still for that read-out and setting: to `CCOc1ncc(-c2cc(C(=O)Nc3cc(C(F)(F)F)ncc3F)ccc2C)cc1N1CCOCC1` [Example 961, 3-(6-ethoxy-5-morpholinopyridin-3-yl)-N-(5-fluoro-2-(trifluoromethyl)pyridin-4-yl)-4-methylbenzamide] belongs 8.74.
On the same count and under the same terms, to `Cc1ncc(NC(=O)c2cc(C(C)(C)F)ccn2)cc1-c1cnc(OC(C)C)c(N2CCOCC2)c1` [Example 957, 4-(2-fluoropropan-2-yl)-N-(6′-isopropoxy-2-methyl-5′-morpholino-[3,3′-bipyridin]-5-yl)picolinamide] belongs 8.21.
On to `Cc1ccc(NC(=O)c2ccnc(C(C)(F)F)c2)cc1-c1cnc(OCCO)c(N2CCOCC2)c1` [Example 1000, 2-(1,1-difluoroethyl)-N-(3-(6-(2-hydroxyethoxy)-5-morpholinopyridin-3-yl)-4-methylphenyl)isonicotinamide], for which the pIC50 was 8.67.
Turning to `Cc1ncc(NC(=O)c2ccnc(C(C)(C)O)c2)cc1-c1cnc(OC2CC3(COC3)C2)c(N2CCOCC2)c1` [Example 964, N-(6′-(2-oxaspiro[3.3]heptan-6-yloxy)-2-methyl-5′-morpholino-[3,3′-bipyridin]-5-yl)-2-(2-hydroxypropan-2-yl)isonicotinamide], the pIC50 is 8.09.
Same read-out and setting: to `CCOc1cc(-c2cc(NC(=O)c3ccnc(C(C)(C)O)c3)cnc2C)cc(N2CCOCC2)n1` [Example 1148, N-(2′-ethoxy-2-methyl-6′-morpholino-[3,4′-bipyridin]-5-yl)-2-(2-hydroxypropan-2-yl)isonicotinamide] belongs 7.92; to `Cc1ccc(NC(=O)c2cnnc(C3CC3)c2)cc1-c1cc(OC2CCOCC2)nc(N2CCOCC2)c1` [Example 1154, 6-cyclopropyl-N-(4-methyl-3-(2-morpholino-6-((tetrahydro-2H-pyran-4-yl)oxy)pyridin-4-yl)phenyl)pyridazine-4-carboxamide], 9.22.

The same experiment, now with this note: read-out: b-Raf IC-50; Table 2; AlphaScreen, 3 hours reaction.
Consider `CCOc1ncc(-c2cc(NC(=O)c3ccnc(C(F)(F)F)c3)cnc2C)cc1N1CCOCC1` [Example 246, N-(6′-ethoxy-2-methyl-5′-morpholino-[3,3′-bipyridin]-5-yl)-2-(trifluoromethyl)isonicotinamide], for which the pIC50 is 8.92.
In the case of `Cn1cc(-c2cc(NC(=O)c3ccnc(C(C)(F)F)c3)ccc2Cl)cc(N2CCOCC2)c1=O` [Example 414, N-(4-chloro-3-(1-methyl-5-morpholino-6-oxo-1,6-dihydropyridin-3-yl)phenyl)-2-(1,1-difluoroethyl)isonicotinamide], the pIC50 was 8.85.
Turning to `Cc1ccc(NC(=O)c2cnnc(C3(C#N)CC3)c2)cc1-c1cnc(OC2CCOCC2)c(N2CCOCC2)c1` [Example 302, 6-(1-cyanocyclopropyl)-N-(4-methyl-3-(5-morpholino-6-((tetrahydro-2H-pyran-4-yl)oxy)pyridin-3-yl)phenyl)pyridazine-4-carboxamide], the pIC50 was 9.22.
With `Cn1cc(-c2cc(NC(=O)c3ccnc(C(C)(F)F)c3)cnc2Cl)cc(N2CCOCC2)c1=O` [Example 405, N-(2-chloro-1′-methyl-5′-morpholino-6′-oxo-1′,6′-dihydro-[3,3-bipyridin]-5-yl)-2-(1,1-difluoroethyl)isonicotinamide], the pIC50 was 8.35.
Regarding `COc1ncc(-c2cc(NC(=O)c3cnnc(C(F)(F)F)c3)cnc2Cl)cc1N1CCOCC1` [Example 263, N-(2-chloro-6′-methoxy-5′-morpholino-[3,3′-bipyridin]-5-yl)-6-(trifluoromethyl)pyridazine-4-carboxamide], the pIC50 was 8.05.
